{"source": "patent US9920040B2", "about": "“GPR40 agonists for the treatment of type II diabetes” (Janssen Pharmaceutica NV, priority 2015, dated 2018)", "key": {"human GPR40": {"molecular_target": "T1, human GPR40 (Homo sapiens, UniProt O14842)", "T1 construct": "expressed in transfected cells", "T1 sequence (O14842 whole entry)": "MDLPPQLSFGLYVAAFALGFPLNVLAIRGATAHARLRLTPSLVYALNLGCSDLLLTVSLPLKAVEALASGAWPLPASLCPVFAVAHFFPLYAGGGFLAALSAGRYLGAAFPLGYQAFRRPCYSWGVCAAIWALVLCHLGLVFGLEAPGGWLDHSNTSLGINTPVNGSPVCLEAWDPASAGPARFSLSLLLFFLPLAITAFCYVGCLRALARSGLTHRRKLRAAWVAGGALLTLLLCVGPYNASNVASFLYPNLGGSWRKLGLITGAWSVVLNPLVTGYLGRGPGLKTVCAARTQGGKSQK", "assay": "GPR40 calcium flux assay, human GPR40", "assay_type": "cell-based", "conditions": "transfected HEK293 cells stably expressing human GPR40; multiple values = repeated testing; read-out: hGPR40 Ca^2+ Assay EC50", "description": "(§1) Compounds were tested in a calcium flux assay using transfected HEK293 cells stably expressing either human GPR40 or rat GPR40. Human GPR40 expressing cells were cultured in DMEM-High Glucose media supplemented with 10% fetal bovine serum, 1×L-Glutamine, 1×Penicillin/Streptomycin and 500 μg/mL G418. Rat GPR40 expressing cells were cultured in DMEM-High Glucose media supplemented with 10% fetal bovine serum and 1 μg/mL puromycin. Cells were plated into poly-D-lysine coated 384-well plates and cultured overnight in a 37° C. humidified tissue culture incubator under 5% CO2/[…] atmosphere. On the day of the experiment, the culture media was replaced with assay buffer (HBSS, 20 mM HEPES, 0.1% BSA) and the cells incubated at 37° C. for 1 h. Calcium-sensitive fluorescent dye (Fluo 8 No-Wash Calcium Dye, ABD Bioquest) was then added and the cells incubated for another 30 min at 37° C. followed by 15 min at room temperature while protected from the light. The cell plate and a plate of diluted compounds of Formula (I) were loaded into a fluorescent plate reader that added compounds onto the cells while measuring the fluorescence intensity of each well. The plate reader recorded fluorescence intensity at 1 second intervals for 8 min and provided the data for analysis in an Excel format. EC50 values were calculated using Prism (GraphPad) software."}, "rat GPR40": {"molecular_target": "T2, rat GPR40 (Rattus norvegicus, UniProt Q8K3T4)", "T2 construct": "expressed in transfected cells", "T2 sequence (Q8K3T4 whole entry)": "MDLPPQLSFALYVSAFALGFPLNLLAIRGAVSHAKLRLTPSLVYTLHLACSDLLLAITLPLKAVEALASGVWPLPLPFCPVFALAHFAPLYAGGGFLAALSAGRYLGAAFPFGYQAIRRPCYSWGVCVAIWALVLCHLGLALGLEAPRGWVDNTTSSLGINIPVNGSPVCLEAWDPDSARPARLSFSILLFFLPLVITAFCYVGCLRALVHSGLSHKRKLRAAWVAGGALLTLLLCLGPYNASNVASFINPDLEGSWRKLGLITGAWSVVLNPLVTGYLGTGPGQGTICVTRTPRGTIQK", "assay": "GPR40 calcium flux assay, rat GPR40", "assay_type": "cell-based", "conditions": "transfected HEK293 cells stably expressing rat GPR40; multiple values = repeated testing; read-out: rGPR40 Ca^2+ Assay EC50", "description": "as §1"}}, "note": "pEC50: −log10 of the molar value. “And” between values parts separate entries of the source, which are not always exact repeats. Equal values may be shown once.", "data": [{"smiles": "COc1ccc(F)c(-c2onc(COc3cccc([C@@H](CC(=O)O)C4CC4)c3)c2OC2CC(C)(C)C(C)(C)C2)c1", "note": "[Cpd 1, (3S)-3-cyclopropyl-3-[3-[[5-(2-fluoro-5-methoxy-phenyl)-4-(3,3,4,4-tetramethylcyclopentoxy)isoxazol-3-yl]methoxy]phenyl]propanoic acid]", "values": [{"measurement": "pEC50", "setting": "human GPR40", "value": 8.52}, {"measurement": "pEC50", "setting": "rat GPR40", "value": 8.22}]}, {"smiles": "COc1cc(-c2onc(COc3cccc([C@@H](CC(=O)O)C4CC4)c3)c2OC2CC(C)(C)CC(C)(C)C2)c(F)cn1", "note": "[Cpd 2, (3S)-3-cyclopropyl-3-[3-[[5-(5-fluoro-2-methoxy-4-pyridyl)-4-(3,3,5,5-tetramethylcyclohexoxy)isoxazol-3-yl]methoxy]phenyl]propanoic acid]", "values": [{"measurement": "pEC50", "setting": "human GPR40", "value": 8.30}, {"measurement": "pEC50", "setting": "rat GPR40", "value": 8.05}]}, {"smiles": "COc1cc(-c2onc(COc3cccc([C@@H](CC(=O)O)C4CC4)c3)c2OC2CC(C)(C)C(C)(C)C2)c(F)cn1", "note": "[Cpd 4, (3S)-3-cyclopropyl-3-[3-[[5-(5-fluoro-2-methoxy-4-pyridyl)-4-(3,3,4,4-tetramethylcyclopentoxy)isoxazol-3-yl]methoxy]phenyl]propanoic acid]", "values": [{"measurement": "pEC50", "setting": "human GPR40", "value": 8.30}, {"measurement": "pEC50", "setting": "rat GPR40", "value": 8.00}]}, {"smiles": "COc1ccc(F)c(-c2onc(COc3cccc([C@@H](CC(=O)O)C4CC4)c3)c2OCC2CC(C)(C)C2)c1", "note": "[Cpd 5, (3S)-3-cyclopropyl-3-[3-[[4-[(3,3-dimethylcyclobutyl)methoxy]-5-(2-fluoro-5-methoxy-phenyl)isoxazol-3-yl]methoxy]phenyl]propanoic acid]", "values": [{"measurement": "pEC50", "setting": "human GPR40", "value": "7.43 and 7.46 and 8.22"}, {"measurement": "pEC50", "setting": "rat GPR40", "value": "7.16 and 7.34 and 7.25"}]}, {"smiles": "COc1ccc(F)c(-c2onc(CCc3cccc(C(CC(=O)O)C4CC4)c3)c2C2CC2)c1", "note": "(stereo not shown) [Cpd 7, 3-cyclopropyl-3-[3-[2-[4-cyclopropyl-5-(2-fluoro-5-methoxy-phenyl)isoxazol-3-yl]ethyl]phenyl]propanoic acid]", "values": [{"measurement": "pEC50", "setting": "human GPR40", "value": 7.62}, {"measurement": "pEC50", "setting": "rat GPR40", "value": 7.16}]}, {"smiles": "COc1cc(-c2onc(COc3cccc([C@@H](CC(=O)O)C4CC4)c3)c2OCC2CC(C)(C)C2)c(F)cn1", "note": "[Cpd 8, (3S)-3-cyclopropyl-3-[3-[[4-[(3,3-dimethylcyclobutyl)methoxy]-5-(5-fluoro-2-methoxy-4-pyridyl)isoxazol-3-yl]methoxy]phenyl]propanoic acid]", "values": [{"measurement": "pEC50", "setting": "human GPR40", "value": "6.95 and 6.99 and 7.57"}, {"measurement": "pEC50", "setting": "rat GPR40", "value": "7.36 and 6.84"}]}, {"smiles": "COc1ccc(F)c(-c2onc(COc3cc(C(CC(=O)O)C4CC4)c(Cl)cn3)c2C2=CCCC2(C)C)c1", "note": "(stereo not shown) [Cpd 9, 3-[5-chloro-2-[[4-(5,5-dimethylcyclopenten-1-yl)-5-(2-fluoro-5-methoxy-phenyl)isoxazol-3-yl]methoxy]-4-pyridyl]-3-cyclopropyl-propanoic acid]", "values": [{"measurement": "pEC50", "setting": "human GPR40", "value": 7.28}, {"measurement": "pEC50", "setting": "rat GPR40", "value": 6.86}]}, {"smiles": "COc1cc(-c2scc(COc3cccc([C@@H](CC(=O)O)C4CC4)c3)c2C2=CCCC2(C)C)c2ccsc2c1", "note": "[Cpd 10, (3S)-3-cyclopropyl-3-[3-[[4-(5,5-dimethylcyclopenten-1-yl)-5-(6-methoxybenzothiophen-4-yl)-3-thienyl]methoxy]phenyl]propanoic acid]", "values": [{"measurement": "pEC50", "setting": "human GPR40", "value": "7.28 and 7.46 and 7.47"}, {"measurement": "pEC50", "setting": "rat GPR40", "value": "7.04 and 7.05"}]}]}
